From patent US10538555B2, “Macrocyclic inhibitors of the PD-1/PD-L1 and CD80(B7-1)/PD-L1 protein/protein interactions” (BRISTOL-MYERS SQUIBB COMPANY, priority 2014, dated 2020)
Where a SMILES comes first, the peptide text is derived from it. Bridges are numbered along the chain shown (N, C = ends). [ ]: non-standard residue; d: D form. ξ: configuration not given here. Trp(1-CH2COOH) = N[C@@H](Cc1cn(CC(=O)O)c2ccccc12)C(=O)O; Trp(βS-Me) = C[C@@H](c1c[nH]c2ccccc12)[C@H](N)C(=O)O; Phe(3,4,5-F3) = N[C@@H](Cc1cc(F)c(F)c(F)c1)C(=O)O; Phe(3,4-F2) = N[C@@H](Cc1ccc(F)c(F)c1)C(=O)O; Trp(1-Me) = Cn1cc(C[C@H](N)C(=O)O)c2ccccc21; Phe(4-F) = N[C@@H](Cc1ccc(F)cc1)C(=O)O; d(cisHyp) = O=C(O)[C@H]1C[C@@H](O)CN1; NMeIle(3ξ) = CCC(C)[C@H](NC)C(=O)O; Hyp = O=C(O)[C@@H]1C[C@@H](O)CN1; NMeF = CN[C@@H](Cc1ccccc1)C(=O)O; dNMeF = CN[C@H](Cc1ccccc1)C(=O)O; dHyp = O=C(O)[C@H]1C[C@H](O)CN1; NMeNle = CCCC[C@H](NC)C(=O)O; Pip = O=C(O)[C@@H]1CCCCN1; dPip = O=C(O)[C@H]1CCCCN1; hSer = N[C@@H](CCO)C(=O)O; NMeA = CN[C@@H](C)C(=O)O; Orn = NCCC[C@H](N)C(=O)O; Dab = NCC[C@H](N)C(=O)O; Dap = NC[C@H](N)C(=O)O; ξC = NC(CS)C(=O)O; Sar = CNCC(=O)O

Target: T1, Human PD-L1/PD-1 (Homo sapiens, UniProt Q9NZQ7)
T1 construct: TVMV protease cleavage site (C); made in house; host or cells: HEK293T cells
Assay: HTRF Human PD-L1/PD-1 binding assay (PD-1-Ig/PD-L1-His)
Conditions: PD-L1-His 10 nM, PD-1-Ig 20 nM; class symbol; read-out: HTRF Human PD-L1/PD-1 Binding Assay IC50 Range
How it was run: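 HTRF read-out (665/620 nm ratio) after 30 min equilibration with Eu-cryptate anti-Ig mAb (1 nM) and APC anti-His mAb (20 nM). Peptides preincubated 15 min with PD-L1-His (10 nM), then PD-1-Ig (20 nM) added for 15 min.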

T1 sequence (Q9NZQ7 with tags, fused parts or gaps): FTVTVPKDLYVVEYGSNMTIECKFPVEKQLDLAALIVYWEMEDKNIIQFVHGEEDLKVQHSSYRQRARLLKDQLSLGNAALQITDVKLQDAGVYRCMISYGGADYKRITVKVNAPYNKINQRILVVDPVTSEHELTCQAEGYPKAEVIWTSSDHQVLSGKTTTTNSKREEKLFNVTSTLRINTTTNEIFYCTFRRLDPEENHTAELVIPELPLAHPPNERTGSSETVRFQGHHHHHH

## CCCC[C@H]1C(=O)N2C[C@H](O)C[C@@H]2C(=O)N[C@@H](CC(=O)O)C(=O)N[C@@H](C(C)C)C(=O)N(C)[C@@H](Cc2ccccc2)C(=O)N[C@@H](CC(=O)O)C(=O)N2C[C@H](O)C[C@@H]2C(=O)N[C@@H](Cc2c[nH]c3ccccc23)C(=O)N[C@@H](Cc2ccc(O)cc2)C(=O)N[C@@H](CCC(=O)O)C(=O)N[C@H](C(=O)NCC(N)=O)CSCC(=O)N[C@@H](Cc2ccc(F)c(F)c2)C(=O)N(C)[C@@H](Cc2ccccc2)C(=O)N1C [Example 9314] ({CH2CO}-[Phe(3,4-F2)][NMeF][NMeNle][d(cisHyp)]DV[NMeF]D[d(cisHyp)]WYECG-NH2; thioether N-13)
  IC50: 1 to 9.9 nM

## CCCC[C@H]1C(=O)N2CCC[C@@H]2C(=O)N[C@@H](CC(=O)O)C(=O)N[C@@H](C(C)C)C(=O)N(C)[C@@H](Cc2ccccc2)C(=O)N[C@@H](Cc2ccc(O)cc2)C(=O)N2CCC[C@@H]2C(=O)N[C@@H](Cc2c[nH]c3ccccc23)C(=O)N[C@@H](Cc2ccc(O)cc2)C(=O)N[C@@H](CC(=O)O)C(=O)N[C@H](C(=O)NCC(N)=O)CSCC(=O)N[C@@H](Cc2cc(F)c(F)c(F)c2)C(=O)N(C)[C@@H](Cc2ccccc2)C(=O)N1C [Example 10099] ({CH2CO}-[Phe(3,4,5-F3)][NMeF][NMeNle][dP]DV[NMeF]Y[dP]WYDCG-NH2; thioether N-13)
  IC50: 1 to 9.9 nM

## CCCC[C@H]1C(=O)N(C)[C@@H](CCCC)C(=O)N[C@@H](C)C(=O)N[C@H](C(=O)NCC(N)=O)CSCC(=O)N[C@@H](Cc2ccc(O)cc2)C(=O)N(C)[C@@H](C)C(=O)N[C@@H](CC(=O)O)C(=O)N2CCC[C@H]2C(=O)N[C@@H](Cc2c[nH]cn2)C(=O)N[C@@H](CCC(N)=O)C(=O)N2C[C@H](O)C[C@H]2C(=O)N[C@@H](Cc2c[nH]c3ccccc23)C(=O)N[C@@H](CO)C(=O)N[C@@H](Cc2cn(C)c3ccccc23)C(=O)N1C [Example 1501] ({CH2CO}-Y[NMeA]DPHQ[Hyp]WS[Trp(1-Me)][NMeNle][NMeNle]ACG-NH2; thioether N-14)
  IC50: 10 to 99.9 nM

## CCCC[C@H]1C(=O)N2CCC[C@@H]2C(=O)N[C@@H](CC(=O)O)C(=O)N[C@@H](C(C)C)C(=O)N(C)[C@@H](Cc2ccccc2)C(=O)N[C@@H](CC(=O)O)C(=O)N2CCC[C@@H]2C(=O)N[C@@H](Cc2c[nH]c3ccccc23)C(=O)N[C@@H](Cc2ccc(O)cc2)C(=O)N[C@@H](CCCCN)C(=O)N[C@H](C(=O)NCC(N)=O)CSCC(=O)N[C@@H](Cc2cc(F)c(F)c(F)c2)C(=O)N(C)[C@@H](Cc2ccccc2)C(=O)N1C [Example 10171] ({CH2CO}-[Phe(3,4,5-F3)][NMeF][NMeNle][dP]DV[NMeF]D[dP]WYKCG-NH2; thioether N-13)
  IC50: 10 to 99.9 nM

## CCCC[C@H]1C(=O)N2CCC[C@@H]2C(=O)N[C@@H](CC(=O)O)C(=O)N[C@@H](C(C)C)C(=O)N(C)[C@@H](C(C)CC)C(=O)N[C@@H](CCC(N)=O)C(=O)N2CCC[C@@H]2C(=O)N[C@@H](Cc2c[nH]c3ccccc23)C(=O)N[C@@H](Cc2ccc(O)cc2)C(=O)N[C@@H](CC(C)C)C(=O)N[C@H](C(=O)NCC(N)=O)CSCC(=O)N[C@@H](Cc2ccc(F)cc2)C(=O)N(C)[C@@H](Cc2ccccc2)C(=O)N1C (stereo partly drawn) [Example 9260] ({CH2CO}-[Phe(4-F)][NMeF][NMeNle][dP]DV[NMeIle(3ξ)]Q[dP]WYLCG-NH2; thioether N-13)
  IC50: 1000 to 10000 nM

## CCCC[C@H]1C(=O)N[C@@H](CC(N)=O)C(=O)N2CCC[C@H]2C(=O)N[C@@H](CO)C(=O)N[C@@H](CCO)C(=O)N2C[C@H](O)C[C@H]2C(=O)N[C@@H](Cc2c[nH]c3ccccc23)C(=O)N[C@@H](CO)C(=O)N[C@@H](Cc2c[nH]c3ccccc23)C(=O)N(C)[C@@H](C)C(=O)N(C)[C@@H](C)C(=O)N[C@@H](CCCN)C(=O)NC(C(=O)NCC(N)=O)CSCC(=O)N[C@@H](Cc2ccc(O)cc2)C(=O)N1C (stereo partly drawn) [Example 10213] ({CH2CO}-Y[NMeNle]NPS[hSer][Hyp]WSW[NMeA][NMeA][Orn][ξC]G-NH2; thioether N-14)
  IC50: 1000 to 10000 nM

## CCCC[C@H]1C(=O)N(C)[C@@H](CCCC)C(=O)N[C@@H](CCC(=O)O)C(=O)N[C@H](C(=O)NCC(N)=O)CSCC(=O)N[C@@H](Cc2ccc(O)cc2)C(=O)N2CCCC[C@H]2C(=O)N[C@@H](CC(N)=O)C(=O)N2CCC[C@H]2C(=O)N[C@@H](CN)C(=O)N[C@@H](CCC(=O)O)C(=O)N2C[C@H](O)C[C@H]2C(=O)N[C@@H](Cc2c[nH]c3ccccc23)C(=O)N[C@@H](CCN)C(=O)N[C@@H](Cc2c[nH]c3ccccc23)C(=O)N1C [Example 1526] ({CH2CO}-Y[Pip]NP[Dap]E[Hyp]W[Dab]W[NMeNle][NMeNle]ECG-NH2; thioether N-14)
  IC50: 1 to 9.9 nM

## CCCC[C@H]1C(=O)N2C[C@@H](O)C[C@@H]2C(=O)N[C@@H](CC(=O)O)C(=O)N[C@@H](C(C)C)C(=O)N(C)[C@@H](Cc2ccccc2)C(=O)N[C@@H](CCC(=O)O)C(=O)N2C[C@@H](O)C[C@@H]2C(=O)N[C@@H](Cc2c[nH]c3ccccc23)C(=O)N[C@@H](Cc2ccc(O)cc2)C(=O)N[C@@H](CC(C)C)C(=O)N[C@H](C(=O)NCC(N)=O)CSCC(=O)N[C@@H](Cc2cc(F)c(F)c(F)c2)C(=O)N(C)[C@@H](Cc2ccccc2)C(=O)N1C [Example 9275] ({CH2CO}-[Phe(3,4,5-F3)][NMeF][NMeNle][dHyp]DV[NMeF]E[dHyp]WYLCG-NH2; thioether N-13)
  IC50: 1 to 9.9 nM

## CCCC[C@H]1C(=O)N(C)[C@@H](CCCC)C(=O)N[C@@H](C)C(=O)N[C@H](C(=O)NCC(N)=O)CSCC(=O)N[C@@H](Cc2ccc(O)cc2)C(=O)N(C)[C@@H](C)C(=O)N[C@@H](CC(=O)O)C(=O)N2CCC[C@H]2C(=O)N[C@@H](Cc2c[nH]cn2)C(=O)N[C@@H](CCC(N)=O)C(=O)N2C[C@H](O)C[C@H]2C(=O)N[C@@H]([C@@H](C)c2c[nH]c3ccccc23)C(=O)N[C@@H](CO)C(=O)N[C@@H](Cc2c[nH]c3ccccc23)C(=O)N1C [Example 10553] ({CH2CO}-Y[NMeA]DPHQ[Hyp][Trp(βS-Me)]SW[NMeNle][NMeNle]ACG-NH2; thioether N-14)
  IC50: 1 to 9.9 nM

## CCCC[C@H]1C(=O)N(C)[C@@H](CCCC)C(=O)N[C@@H](CCCN)C(=O)N[C@H](C(=O)NCC(N)=O)CSCC(=O)N[C@@H](Cc2ccc(O)cc2)C(=O)N(C)[C@@H](C)C(=O)N[C@@H](CC(=O)O)C(=O)N2CCC[C@H]2C(=O)N[C@@H](Cc2cnc[nH]2)C(=O)N[C@@H](CCC(=O)O)C(=O)N2C[C@H](O)C[C@H]2C(=O)N[C@@H](Cc2c[nH]c3ccccc23)C(=O)N[C@@H](CO)C(=O)N[C@@H](Cc2cn(CC(=O)O)c3ccccc23)C(=O)N1C [Example 6269] ({CH2CO}-Y[NMeA]DPHE[Hyp]WS[Trp(1-CH2COOH)][NMeNle][NMeNle][Orn]CG-NH2; thioether N-14)
  IC50: 10 to 99.9 nM

## CCCC[C@H]1C(=O)N(C)CC(=O)N[C@@H](CO)C(=O)N[C@@H](C(C)C)C(=O)N(C)[C@@H](Cc2ccccc2)C(=O)N[C@@H](Cc2ccc(O)cc2)C(=O)N2CCCC[C@@H]2C(=O)N[C@@H](Cc2c[nH]c3ccccc23)C(=O)N[C@@H](Cc2ccc(O)cc2)C(=O)N[C@@H](CC(C)C)C(=O)N[C@H](C(=O)NCC(N)=O)CSCC(=O)N[C@@H](Cc2ccccc2)C(=O)N(C)[C@@H](Cc2ccccc2)C(=O)N1C [Example 10065] ({CH2CO}-F[NMeF][NMeNle][Sar]SV[NMeF]Y[dPip]WYLCG-NH2; thioether N-13)
  IC50: 10 to 99.9 nM

## CCCC[C@H]1C(=O)N2CCC[C@@H]2C(=O)N[C@@H](CC(=O)O)C(=O)N[C@@H](C(C)C)C(=O)N(C)[C@@H](Cc2ccccc2)C(=O)N[C@@H](CCCN)C(=O)N2CCC[C@@H]2C(=O)N[C@@H](Cc2c[nH]c3ccccc23)C(=O)N[C@@H](Cc2ccc(O)cc2)C(=O)N[C@@H](CC(C)C)C(=O)N[C@H](C(=O)NCC(N)=O)CSCC(=O)N[C@@H](Cc2cc(F)c(F)c(F)c2)C(=O)N(C)[C@@H](Cc2ccccc2)C(=O)N1C [Example 10104] ({CH2CO}-[Phe(3,4,5-F3)][NMeF][NMeNle][dP]DV[NMeF][Orn][dP]WYLCG-NH2; thioether N-13)
  IC50: 1 to 9.9 nM

## CCCC[C@H]1C(=O)N2C[C@@H](O)C[C@@H]2C(=O)N[C@@H](CC(=O)O)C(=O)N[C@@H](C(C)C)C(=O)N(C)[C@H](Cc2ccccc2)C(=O)N[C@@H](Cc2ccc(OC)cc2)C(=O)N2C[C@@H](O)C[C@@H]2C(=O)N[C@@H](Cc2c[nH]c3ccccc23)C(=O)N[C@@H](Cc2ccc(O)cc2)C(=O)N[C@@H](CC(C)C)C(=O)N[C@H](C(=O)NCC(N)=O)CSCC(=O)N[C@@H](Cc2ccc(F)c(F)c2)C(=O)N(C)[C@@H](Cc2ccccc2)C(=O)N1C [Example 9226] ({CH2CO}-[Phe(3,4-F2)][NMeF][NMeNle][dHyp]DV[dNMeF]Y(Me)[dHyp]WYLCG-NH2; thioether N-13)
  IC50: 10 to 99.9 nM

## CCCC[C@H]1C(=O)N(C)[C@@H](CCCC)C(=O)N[C@@H](CCCNC(=N)N)C(=O)NC(C(=O)NCC(N)=O)CSCC(=O)N[C@@H](Cc2ccc(O)cc2)C(=O)N(C)[C@@H](C)C(=O)N[C@@H](CC(N)=O)C(=O)N2CCC[C@H]2C(=O)N[C@@H](CO)C(=O)N[C@@H](CO)C(=O)N2CCC[C@H]2C(=O)N[C@@H](Cc2c[nH]c3ccccc23)C(=O)N[C@@H](CO)C(=O)N[C@@H](Cc2c[nH]c3ccccc23)C(=O)N1C (stereo partly drawn) [Example 10017] ({CH2CO}-Y[NMeA]NPSSPWSW[NMeNle][NMeNle]R[ξC]G-NH2; thioether N-14)
  IC50: 10 to 99.9 nM

## CCCC[C@H]1C(=O)N(C)[C@@H](CCCC)C(=O)N[C@@H](CCC(=O)O)C(=O)N[C@H](C(=O)NCC(N)=O)CSCC(=O)N[C@@H](Cc2ccc(O)cc2)C(=O)N(C)[C@@H](C)C(=O)N[C@@H](CC(N)=O)C(=O)N2CCC[C@H]2C(=O)N[C@@H](CN)C(=O)N[C@@H](CCC(=O)O)C(=O)N2C[C@H](O)C[C@H]2C(=O)N[C@@H](Cc2c[nH]c3ccccc23)C(=O)N[C@@H](CCC(=O)O)C(=O)N[C@@H](Cc2c[nH]c3ccccc23)C(=O)N1C [Example 5243] ({CH2CO}-Y[NMeA]NP[Dap]E[Hyp]WEW[NMeNle][NMeNle]ECG-NH2; thioether N-14)
  IC50: 100 to 990 nM
